Test results taken from ChEMBL document CHEMBL1146745, “Studies on anti-Helicobacter pylori agents. Part 3: A novel, efficacious cephem derivative, FR193879” (Bioorg Med Chem Lett, 2004).

Legend:
[1] = target: Beta-lactamase TEM (Escherichia coli) (UniProt P62593); assay: Relative stability towards penicillinase was determined
[2] = target: Beta-lactamase TEM (Escherichia coli) (UniProt P62593); assay: Stability towards penicillinase was determined
[3] = target: Beta-lactamase TEM (Escherichia coli) (UniProt P62593); assay: Stability towards beta-lactamase was determined in penicillinase

## NC(=O)Cc1csc(SC2=C(C(=O)O)N3C(=O)[C@@H](NC(=O)Cc4ccccc4)[C@H]3SC2)n1
[1]
  Ratio: 9.38
[2]
  Km: 34.8 µg/mL
[3]
  Vmax: 1.18
